Experimental data reported in ChEMBL document CHEMBL3044813, “Bloodbrain barrier permeability and transport studies of JLK1486: a new antiglioblastoma drug” (Med Chem Res, 2012).
Active and inactive are the calls of the source. The rule behind the calls is not given here.

Legend:
[1] = test system: Glioma; test: Antitumor activity against Homo sapiens (human) Glioma cells xenografted in transgenic mouse assessed as mouse survival; format: functional, cell-based
[2] = test system: Blood brain barrier; test: Permeability across blood brain barrier of Rattus norvegicus Sprague-Dawley (rat) at 10 mg/kg, iv; format: ADME, organism-based; parameters: dose 10 mg/kg, route intravenous; conditions: in vivo
[3] = biological target: T1, ATP-dependent translocase ABCB1 (Homo sapiens, UniProt P08183); test: Inhibition of Progesterone-induced P-gp ATPase activity (unknown origin) at 10 uM by spectrophotometry (reference value: 61.5 nmol/mg/min)
[4] = biological target: T1, ATP-dependent translocase ABCB1; test: Inhibition of Vinblastine-induced P-gp ATPase activity (unknown origin) at 10 uM by spectrophotometry (reference value: 42.8 nmol/mg/min)
[5] = biological target: T1, ATP-dependent translocase ABCB1; test: Inhibition of Vinblastine-induced P-gp ATPase activity (unknown origin) at 1 uM by spectrophotometry (reference value: 42.8 nmol/mg/min)
[6] = biological target: T1, ATP-dependent translocase ABCB1; test: Inhibition of Progesterone-induced P-gp ATPase activity (unknown origin) at 1 uM by spectrophotometry (reference value: 61.5 nmol/mg/min)
[7] = biological target: T1, ATP-dependent translocase ABCB1; test: Inhibition of Verapamil-induced P-gp ATPase activity (unknown origin) at 10 uM by spectrophotometry (reference value: 90.7 nmol/mg/min)
[8] = biological target: T1, ATP-dependent translocase ABCB1; test: Inhibition of Verapamil-induced P-gp ATPase activity (unknown origin) at 1 uM by spectrophotometry (reference value: 90.7 nmol/mg/min)
[9] = biological target: T1, ATP-dependent translocase ABCB1; test: Modulation of P-gp ATPase activity (unknown origin) at 10 uM by spectrophotometry (RvB = 30.2 nmol/mg/min)
[10] = biological target: T1, ATP-dependent translocase ABCB1; test: Modulation of P-gp ATPase activity (unknown origin) at 1 uM by spectrophotometry (RvB = 30.2 nmol/mg/min)
[11] = test system: Brain; test: Drug uptake in Rattus norvegicus Sprague-Dawley (rat) brain at 10 mg/kg, iv by HPLC analysis; format: ADME, organism-based; parameters: dose 10 mg/kg, route intravenous; conditions: in vivo
[12] = test system: Cerebrospinal fluid; test: Drug uptake in Rattus norvegicus Sprague-Dawley (rat) CSF at 10 mg/kg, iv after 1 hr by HPLC analysis; format: ADME, organism-based; parameters: dose 10 mg/kg, route intravenous; conditions: in vivo

T1 sequence (P08183 whole entry): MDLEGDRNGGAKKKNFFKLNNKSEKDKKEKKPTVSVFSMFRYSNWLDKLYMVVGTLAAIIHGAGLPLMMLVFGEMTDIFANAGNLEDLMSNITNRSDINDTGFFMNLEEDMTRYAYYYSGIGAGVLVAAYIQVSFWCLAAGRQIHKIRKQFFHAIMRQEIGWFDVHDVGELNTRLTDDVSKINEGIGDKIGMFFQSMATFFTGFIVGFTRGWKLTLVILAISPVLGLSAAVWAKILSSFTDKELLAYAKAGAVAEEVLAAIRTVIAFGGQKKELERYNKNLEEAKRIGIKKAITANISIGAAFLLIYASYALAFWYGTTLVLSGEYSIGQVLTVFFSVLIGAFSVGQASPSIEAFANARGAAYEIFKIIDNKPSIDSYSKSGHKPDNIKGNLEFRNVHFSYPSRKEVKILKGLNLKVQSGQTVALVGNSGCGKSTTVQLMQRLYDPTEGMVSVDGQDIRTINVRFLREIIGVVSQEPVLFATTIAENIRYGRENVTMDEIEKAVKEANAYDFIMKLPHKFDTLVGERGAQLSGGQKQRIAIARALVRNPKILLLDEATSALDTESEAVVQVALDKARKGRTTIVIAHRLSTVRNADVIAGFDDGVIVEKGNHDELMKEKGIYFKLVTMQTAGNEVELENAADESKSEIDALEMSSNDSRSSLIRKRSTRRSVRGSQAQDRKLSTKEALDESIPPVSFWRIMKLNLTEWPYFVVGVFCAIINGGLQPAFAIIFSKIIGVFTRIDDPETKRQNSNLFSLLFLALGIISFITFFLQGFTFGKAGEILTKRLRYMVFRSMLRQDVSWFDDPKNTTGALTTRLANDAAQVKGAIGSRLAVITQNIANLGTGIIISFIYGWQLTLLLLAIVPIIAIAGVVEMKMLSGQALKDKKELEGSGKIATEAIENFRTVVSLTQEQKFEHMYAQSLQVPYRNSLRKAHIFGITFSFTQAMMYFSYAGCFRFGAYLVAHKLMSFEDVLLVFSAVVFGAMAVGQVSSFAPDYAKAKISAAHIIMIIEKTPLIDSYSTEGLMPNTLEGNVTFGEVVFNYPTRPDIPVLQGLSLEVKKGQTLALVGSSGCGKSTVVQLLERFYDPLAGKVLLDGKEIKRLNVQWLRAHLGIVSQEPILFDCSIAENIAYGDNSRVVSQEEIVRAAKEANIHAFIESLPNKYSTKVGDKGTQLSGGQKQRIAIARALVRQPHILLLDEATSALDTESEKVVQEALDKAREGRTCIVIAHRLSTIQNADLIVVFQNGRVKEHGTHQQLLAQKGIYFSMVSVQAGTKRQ

Cn1nnc2c(C(N)=O)ncn2c1=O [TEMOZOLOMIDE] was tested, and the Activity [1] was “Active” and the pBBB [2] was 2.7 ×10⁻³ cm/s.
With Oc1ccc(CN(Cc2ccc(C(F)(F)F)cc2)Cc2ccc(O)c3ncccc23)c2cccnc12 the Activity [3] was 51.8 nmol/mg/min, the Activity [1] was “Active” and the Activity [4] was 30.8 nmol/mg/min. For the same compound, the Activity [5] was 34.3 nmol/mg/min, the Activity [6] was 54.8 nmol/mg/min and the Activity [7] was 77.1 nmol/mg/min. It also gave an Activity [8] of 84.5 nmol/mg/min, an Activity [9] of 33.1 nmol/mg/min and an Activity [10] of 31.3 nmol/mg/min. It also gave a Drug uptake [11] of 2.2% and a Drug uptake [12] of 0.037%.
